Here are results for three molecules from PMC12656546, “Enterohepatic Recirculation-Mediated Reabsorption of Aristolochic Acid I: Revealed by Toxicokinetics and Metabolite Identification in Rats” (Toxics, 2025).

The nature of the data set: Qualitative analysis of AAI and metabolites in bile of bile duct-cannulated rats. The class given is in vivo, F344 rats. The following applies: 30 mg/kg AAI oral, bile collected 0–3 h, 3–6 h, 6–9 h, 9–12 h, qualitative UHPLC-Q-Exactive. How it is done: Ten 6-week-old F344 rats were divided into a control group (n = 2) and a treatment group (n = 8), with equal numbers of males and females in each group. During the experiment, rats were fasted and had access to water ad libitum. Rats in the control group were administered with 0.5% CMC-Na suspension via gastric gavage. For the treatment group, rats were administered with 30 mg/kg of AAI by the same route. Rats underwent bile duct cannulation for bile sample collection. Bile samples were collected at consecutive intervals of 0–3 h, 3–6 h, 6–9 h and 9–12 h after administration.
For each bile sample, a 200 μL aliquot of bile was mixed with an equal volume of a methanol/acetonitrile (1:1, v/v) solution. After vortexing for 2 min, the mixture was centrifuged at 13,200 rpm for 10 min. The precipitate was discarded, and the supernatant was dried under nitrogen gas. The dried residue was reconstituted in 80 μL of methanol, vortexed for 2 min, and centrifuged at 13,200 rpm for 15 min. The resulting supernatant was used for further analysis.
Ultra-high-performance liquid chromatography (UHPLC) coupled with a Q-Exactive orbitrap mass spectrometer (Thermo Fisher Scientific, San Jose, CA, USA) was used to analyzed the metabolites of AAI in rat bile. An ACQUITY UPLC BEH C18 column (2.1 mm × 50 mm, 1.7 μm, Waters, Milford, MA, USA) was employed for chromatographic separation. The mobile phase consisted of water containing 5 mmol/L ammonium formate/0.1% formic acid (A) and acetonitrile (B).
Metabolites in bile samples were analyzed using electrospray ionization (ESI) in both positive and negative ion modes. The spray voltage was set at 3500 V for positive mode and 3000 V for negative mode. The ion transfer tube temperature was maintained at 350 °C with a vaporizer temperature of 300 °C. The sheath gas and auxiliary gas flow rates were 35 Arb and 10 Arb. Full-scan MS data were acquired at a resolution of 35,000 within the mass range of m/z 100–1200. For MS/MS analysis, data-dependent acquisition (DDA) was performed at a resolution of 17,500 using high-energy collision dissociation (HCD). Post-acquisition data was imported into Compound Discoverer 2.1 software to identify AAI metabolites. Blank matrices were processed alongside samples to exclude the background interferences.

`COc1cccc2c1c(O)c1c3c(cc4c(c32)OCO4)C(=O)N1` [ALI-9-OH, 9-hydroxyaristolactam I]: the “detection in bile (biliary excretion)” value is listed as “detected in bile samples”.

Take `COc1cccc2c1cc([N+](=O)[O-])c1c(C(=O)OC3OC(C(=O)O)C(O)C(O)C3O)cc3c(c12)OCO3` (stereo not drawn) [AAI-O-glucuronide]: the “detection in bile (biliary excretion)” value is given as “detectable in bile collected during four consecutive periods after oral administration”. To `COc1cccc2c1cc1c3c(cc4c(c32)OCO4)C(=O)N1O` [ALI-N-OH, N-hydroxyaristolactam I] belongs “detected in bile samples”.
